“Also recorded” adds a separate entry of the source.

The subject of one assay is skin. As to conditions: topical treatment of skin; Griffiths et al. 1993; cited from earlier work.
In assay [1] the test system is decorin. Description: Immunohistochemical analysis of decorin expression in photodamaged forearm skin after topical retinoic acid. Type of assay: in vivo, human (women). The text has this: (§1) Two groups of women were recruited with identical or nearly identical degrees of mild to moderate photodamage on each outer forearm. They were supplied with 0.05% retinoic acid in a moisturising base (Retinova®) and also with a colour matched moisturising cream with similar sensory characteristics (Dermacare® lotion) but no active ingredients as a placebo control. Each participant of the two groups applied the Retinova® to one outer forearm and placebo (Dermacare®) to the other outer forearm. Group 1 applied the products daily to their outer forearms for 14 weeks and the Group 2 applied the products to their outer forearms for 28 weeks. At the end of the studies two full thickness 4 mm punch biopsies were taken from the treated areas of each forearm. Immunohistochemical analysis of the biopsy tissue taken from the participants was performed to identify the effect of retinoic acid treatment on the expression of the skin extracellular matrix components decorin and procollagen-I as compared with the placebo treated forearms. The following procedure was followed:
(§2) Antibody dilution buffer for wax sections was composed of Tris Buffered Saline (TBS), 3% bovine serum albumin (BSA), 0.05% Triton X-100 and 0.05% sodium azide. Primary antibodies for procollagen-I (amino terminal) were obtained from Chemicon International Inc. (cat# MAB 1912, rat IgG1) and used on wax sections at a dilution of 1:800, overnight at 4° C. after the section had been pre-treated trypsin (0.5 mg/ml, 25 minutes, 37° C.). Primary antibodies for decorin were obtained from Biogenesis (rabbit polyclonal) and used on wax sections at a dilution of 1:800, overnight at 4° C. Anti-rat biotinylated secondary antibodies were obtained from DAKO (cat# E0468, rabbit polyclonal) was applied to wax sections at a dilution of 1:400. Anti-rabbit biotinylated secondary antibodies were obtained from Amersham (cat# RPN 1004, donkey polyclonal) was applied to wax sections at a dilution of 1:400. Streptavidin conjugated alkaline phosphatase was obtained from Zymed (cat# 43-4322) and used at a concentration of 1:2500. […]

In another assay the test system is procollagen-I. As to the kind of experiment: Immunohistochemical analysis of procollagen-I expression in photodamaged forearm skin after topical retinoic acid. Type of assay: in vivo, human (women).
From the text: as §1, §2

Assay [2] deals with decorin. As to the kind of experiment: Decorin synthesis in human dermal fibroblasts (dot blot assay of conditioned medium). Type of assay: cell-based. To be noted: Fibroblast, 24 h, read-out: upregulation of decorin synthesis. As for the experimental part:
Preparation of Dermal Fibroblast Conditioned Medium Primary human foreskin fibroblasts at passage 2 (P2) were seeded into 12-well plates at 10000 cells/cm^2 and maintained for 24 hours in an atmosphere of 5% carbon dioxide and 4% oxygen in Dulbeccos Modified Eagles Medium (DMEM) supplemented with 10% foetal calf serum. After this time the cells were washed with serum free DMEM and then incubated in fresh serum free DMEM for a further 60 hours. The fibroblast monolayers were then washed again with serum free DMEM. Test reagents and vehicle controls were added to the cells in triplicate in a final volume of 0.4 ml/well fresh serum free DMEM and incubated for a further 24 hours. This fibroblast conditioned medium was either analysed immediately or snap frozen in liquid nitrogen and stored at -70° C. for future analysis. The cells were then counted and data from the dot-blot analysis subsequently standardised to cell number.
Samples of conditioned medium from dermal fibroblasts treated with vehicle (as a control) or test reagents were supplemented with 20 mM dithiothreitol (1:10 dilution of 200 mM stock solution) and 0.1% sodium dodecylsulphate (1:100 dilution of 10% stock solution), mixed well and then incubated at 75° C. for 2 minutes. […]

The next assay deals with keratinocytes. As to the kind of experiment: Keratinocyte SDS viability assay (Neutral Red). In kind it is cell-based. As to conditions: 24 h, read-out: cell viability produced by SDS. As for the experimental part: Keratinocytes were grown in 96 well plates to approximately 80% confluency in keratinocyte growth medium (KGM) which was then replaced with KGM without hydrocortisone for 24-48 hours. The cells were then treated with a concentration of sodium dodecyl sulphate (SDS) which will produce cell viability of approximately 50% ([…]). The test compounds "c9 t11 CLA" and "t10 c12 CLA" in table 7 are the same as the agents described above in Example 3. […] After incubating for 24 hours the medium was removed and the viability determined by the Neutral Red method. With this method the cells were incubated for 3 hours in KGM containing 25 μg/ml neutral red after which the medium was removed and the cells were then extracted with […] of 1% (v/v) acetic acid, 50% (v/v) ethanol for 30 min units. The absorbance of the extract at 562 nm was determined and the viability evaluated by reference to wells which contained neither SDS nor test compounds.

Setting [3] is: Group 1 after 14 weeks, 0.05% retinoic acid (Retinova) daily vs placebo, total 16 participants.
The mark [4] stands for this setting: Group 2 after 28 weeks, 0.05% retinoic acid (Retinova) vs placebo, total 15 participants.
The mark [5] stands for this setting: topical retinoic acid (Retinova) vs placebo (Dermacare).

Take `CC1=C(/C=C/C(C)=C/C=C/C(C)=C/C(=O)O)C(C)(C)CCC1` [Retinoic acid, retinoic acid]: the “wrinkle effacement / dermal repair” value in the assay on skin was “induces dermal repair of photodamaged skin; also recorded: wrinkle effacement and dermal repair following topical treatment of skin with retinoic acid arises through new collagen deposition and synthesis in the skin”. In addition, the results for the “No. of Participants showing marked increase in expression of decorin” value with decorin [1] (setting [3]) and in the assay on decorin [1] (setting [4]) were 10 No. of Participants and 15 No. of Participants, respectively. Also, in the assay on decorin [1] (setting [5]), the “decorin expression in photodamaged skin” value is reported as “marked upregulation”. Also, the results for the “No. of Participants showing marked increase in expression of procollagen-I” value in the assay on procollagen-I (setting [3]) and with procollagen-I (setting [4]) were 9 No. of Participants and 10 No. of Participants, respectively. The “procollagen-I expression in photodamaged skin” value with procollagen-I (setting [5]) was “marked upregulation”. Also, in the assay with decorin [2], the activity at 1 µM was 138 ± 14%.

As to `CCCCCCCCCCCCOS(=O)(=O)[O-].[Na+]` [sodium dodecyl sulphate (SDS), sodium dodecyl sulphate], the viability – broadly, the share of living cells, or the viability signal relative to a control – at 5 µg/mL in the assay on keratinocytes was approximately 50%.

(Values after patent US6287553A, “Skin care composition” (Unilever Home & Personal Care USA, division of Conopco, Inc., priority 1998, dated 2001).)
